Tested on: Pseudomonas aeruginosa infection
Experiment: Self-administered inhalation by a cystic fibrosis patient with Pseudomonas aeruginosa infection: patient-reported signs of infection
Type: in vivo, human
Settings: for initial response of asthma and coughing to the antibiotic regimen: ciprofloxacin 2×1000 mg, Zithromax 1×500 mg daily and TOBI 2×5mg given together; for severity of asthma, frequency of coughing and quantity of expectorated mucus after three months on the antibiotics: ciprofloxacin, Zithromax and TOBI given together
Excerpt: I. A cystic fibrosis patient described their asthma as increasingly severe and being present constantly during the day. They reported being more short-breathed than previously, often experiencing difficulty breathing after walking only 50 meters. They also reported an increasingly persistent cough, which escalated to almost every minute. They also described coughing up a “fluorescent light green” mucus. The patient further reported losing about 3.5 kg of weight.
After a lab test by their cystic fibrosis doctor, the patient was diagnosed with a Pseudomonas aeruginosa infection. They were prescribed the antibiotics ciprofloxacin (2×1000 mg), Zithromax® (azithromycin, 1×500 mg daily) and TOBI, an aerosolized form of tobramycin (2×5mg). […]
The patient reports that during the past 3 months they have resumed using the lactoferrin/OPC combination, as well as TOBI twice a day and Zithromax, and pulmozyme.

Row | Compound | initial response of asthma and coughing to the antibiotic regimen | severity of asthma, frequency of coughing and quantity of expectorated mucus after three months on the antibiotics
1 | CC[C@H]1OC(=O)[C@H](C)[C@@H](O[C@H]2C[C@@](C)(OC)[C@@H](O)[C@H](C)O2)[C@H](C)[C@@H](O[C@@H]2O[C@H](C)C[C@H](N(C)C)[C@H]2O)[C@](C)(O)C[C@@H](C)CN(C)[C@H](C)[C@@H](O)[C@]1(C)O [Zithromax, azithromycin] | initial noticeable decrease in both the asthma and coughing | began increasing
2 | O=C(O)c1cn(C2CC2)c2cc(N3CCNCC3)c(F)cc2c1=O [ciprofloxacin] | initial noticeable decrease in both the asthma and coughing | began increasing
